Results as given in ChEMBL document CHEMBL5055656, “Synthesis of novel indole-thiazolidinone hybrid structures as promising scaffold with anticancer potential” (Bioorg Med Chem, 2021).
Active and inactive are the calls of the source. The calls are words filed in the database; no cut-off is given here.

Assays:
MCF7 [1] = test: Cytotoxicity against human MCF7 cells assessed as cell growth inhibition measured after 72 hrs by MTT assay; type: functional
HeLa = test: Cytotoxicity against human HeLa cells assessed as cell growth inhibition measured after 72 hrs by MTT assay; type: functional
A549 = test: Cytotoxicity against human A549 cells assessed as cell growth inhibition measured after 72 hrs by MTT assay; type: functional
THP-1 = test: Cytotoxicity against human THP-1 cells assessed as cell growth inhibition measured after 72 hrs by MTT assay; type: functional
[2] = Cytotoxicity against mouse BALB/3T3 cells assessed as cell growth inhibition measured after 72 hrs by MTT assay; type: cell-based
HepG2 [3] = test: Cytotoxicity against human HepG2 cells assessed as cell growth inhibition measured after 24 hrs by MTT assay; type: functional
HepG2 [4] = test: Cytotoxicity against human HepG2 cells assessed as cell growth inhibition measured after 48 hrs by neutral red uptake assay; type: functional
HepG2 [5] = test: Cytotoxicity against human HepG2 cells assessed as cell growth inhibition measured after 24 hrs by coomassie brilliant blue staining based total cellular protein assay; type: functional
HepG2 [6] = test: Cytotoxicity against human HepG2 cells assessed as cell growth inhibition measured after 48 hrs by coomassie brilliant blue staining based total cellular protein assay; type: functional
HepG2 [7] = test: Cytotoxicity against human HepG2 cells assessed as cell growth inhibition measured after 72 hrs by coomassie brilliant blue staining based total cellular protein assay; type: functional
HepG2 [8] = test: Cytotoxicity against human HepG2 cells assessed as cell growth inhibition measured after 24 hrs by LDH assay; type: functional
HepG2 [9] = test: Cytotoxicity against human HepG2 cells assessed as cell growth inhibition measured after 72 hrs by LDH assay; type: functional
[10] = (§1) Cytotoxicity against mouse BALB/3T3 cells assessed as cell growth inhibition measured after 48 hrs by MTT assay; type: cell-based; conditions: BALB/3T3 cells
BALB/3T3 [11] = test: as §1; type: cell-based; conditions: balb/3t3, 48 h
[12] = (§2) Cytotoxicity against mouse BALB/3T3 cells assessed as cell growth inhibition measured after 24 hrs by neutral red uptake assay; type: cell-based; conditions: BALB/3T3 cells
BALB/3T3 [13] = test: as §2; type: cell-based; conditions: balb/3t3, 24 h
[14] = (§3) Cytotoxicity against mouse BALB/3T3 cells assessed as cell growth inhibition measured after 48 hrs by neutral red uptake assay; type: cell-based; conditions: BALB/3T3 cells
BALB/3T3 [15] = test: as §3; type: cell-based; conditions: balb/3t3, 48 h
[16] = (§4) Cytotoxicity against mouse BALB/3T3 cells assessed as cell growth inhibition measured after 24 hrs by coomassie brilliant blue staining based total cellular protein assay; conditions: BALB/3T3 cells
BALB/3T3 [17] = test: as §4; conditions: balb/3t3, 24 h
[18] = (§5) Cytotoxicity against mouse BALB/3T3 cells assessed as cell growth inhibition measured after 48 hrs by coomassie brilliant blue staining based total cellular protein assay; conditions: BALB/3T3 cells
BALB/3T3 [19] = test: as §5; conditions: balb/3t3, 48 h
[20] = (§6) Cytotoxicity against mouse BALB/3T3 cells assessed as cell growth inhibition measured after 48 hrs by LDH assay; type: cell-based; conditions: BALB/3T3 cells
BALB/3T3 [21] = test: as §6; type: cell-based; conditions: balb/3t3, 48 h
HepG2 [22] = test: Induction of apoptosis in human HepG2 cells assessed as activation of cleaved caspase 3 expression at 0.7 uM incubated for 24 hrs by Western blot analysis; type: functional, cell-based
HepG2 [23] = test: Induction of apoptosis in human HepG2 cells assessed as increase in Bax expression at 45 uM after 24 hrs by Western blot analysis; type: functional, cell-based
HepG2 [24] = test: Induction of cell cycle arrest in human HepG2 cells assessed as effect on phospho-Chk2 expression at 45 uM measured after 24 hrs by Western blot analysis; type: functional, cell-based
HepG2 [25] = test: Induction of cell cycle arrest in human HepG2 cells assessed as effect of phospho-Rb expression at 45 uM measured after 24 hrs by Western blot analysis; type: functional, cell-based
HCT-116 [26] = test: Induction of cell cycle arrest in human HCT-116 cells assessed as decrease in phospho-Rb expression at 45 uM measured after 24 hrs by Western blot analysis; type: functional, cell-based
HCT-116 [27] = test: Induction of DNA damage in human HCT-116 cells assessed as increase in tail length at 0.7 uM incubated measured after 24 hrs by alkaline Comet assay; type: functional, cell-based
MCF7 [28] = test: Induction of DNA damage in human MCF7 cells assessed as increase in tail length incubated at 0.7 uM measured after 24 hrs by alkaline Comet assay; type: functional, cell-based
HCT-116 [29] = test: Induction of DNA damage in human HCT-116 cells assessed as increase in tail length incubated at 0.7 uM measured after 24 hrs by alkaline Comet assay relative to control; type: functional
HepG2 [30] = test: Induction of DNA damage in human HepG2 cells assessed as increase in tail length incubated at 0.7 uM measured after 24 hrs by alkaline Comet assay; type: functional
BALB/3T3 [31] = test: Induction of DNA damage in mouse BALB/3T3 cells assessed as increase in olive tail moment incubated at 55 uM measured after 24 hrs by alkaline Comet assay; type: cell-based; conditions: balb/3t3, 24 h
Salmon testes DNA = test: Displacement of methyl green from salmon sperm DNA at 10 uM measured after 2 hrs by fluorescence plate reader method relative to control; type: cell-based; conditions: Salmo salar, Spermatozoa
[32] = Selectivity index, ratio of GI50 for human HaCaT cells to GI50 for human HCT-116 cells; type: toxicity; conditions: HaCaT cells versus HCT-116 cells, read-out: RatioGI50
[33] = Selectivity index, ratio of GI50 for human HaCaT cells to GI50 for human HeLa cells; type: toxicity; conditions: HaCaT cells versus HeLa cells, read-out: RatioGI50
[34] = Selectivity index, ratio of GI50 for human HaCaT cells to GI50 for human WM793 cells
[35] = Selectivity index, ratio of GI50 for mouse BALA/3T3 cells to GI50 for human HepG2 cells; type: toxicity; conditions: BALA/3T3 cells versus HepG2 cells, read-out: RatioGI50
[36] = Selectivity index, ratio of GI50 for mouse BALA/3T3 cells to GI50 for human MCF7 cells; type: toxicity; conditions: BALA/3T3 cells versus MCF7 cells, read-out: RatioGI50
[37] = Selectivity index, ratio of GI50 for mouse BALA/3T3 cells to GI50 for human HeLa cells; type: toxicity; conditions: BALA/3T3 cells versus HeLa cells, read-out: RatioGI50
[38] = Selectivity index, ratio of GI50 for mouse BALA/3T3 cells to GI50 for human HepG2 cells measured after 72 hrs by coomassie brilliant blue staining based total cellular protein assay; type: toxicity; conditions: BALA/3T3 cells versus HepG2 cells, read-out: Selectivity Index
[39] = Selectivity index, ratio of GI50 for mouse BALA/3T3 cells to GI50 for human HepG2 cells measured after 72 hrs by LDH assay; type: toxicity; conditions: BALA/3T3 cells versus HepG2 cells, read-out: Selectivity Index

## COC(=O)c1[nH]c2ccc(F)cc2c1/C=C1\SC(=S)NC1=O
MCF7 [1]
  GI50: 0.7 µM
HeLa
  GI50: 49.3 µM
A549
  GI50: 9.7 µM
THP-1
  GI50: 62.4 µM
[2]
  GI50 at 72 h: 40.8 µM
HepG2 [3]
  GI20: 3 µM
  GI80: 95.6 µM
HepG2 [3]; Homo sapiens, HepG2
  GI50: 44.7 µM
HepG2 [4]
  GI20: 0.06 µM
  GI80: 73.5 µM
HepG2 [4]; Homo sapiens, HepG2
  GI50: 24.5 µM
HepG2 [5]
  GI20: 3.7 µM
  GI80: >100 µM
HepG2 [5]; Homo sapiens, HepG2
  GI50: > 100 µM
HepG2 [6]
  GI20: 1.6 µM
  GI80: >100 µM
HepG2 [6]; Homo sapiens, HepG2
  GI50: 63.9 µM
HepG2 [7]
  GI20: 0.08 µM
  GI80: >100 µM
HepG2 [7]; Homo sapiens, HepG2
  GI50: 35.6 µM
HepG2 [8]
  GI20: <0.01 µM
  GI80: 20.3 µM
HepG2 [8]; Homo sapiens, HepG2
  GI50: 0.31 µM
HepG2 [9]
  GI20: <0.01 µM
  GI80: 3.6 µM
HepG2 [9]; Homo sapiens, HepG2
  GI50: 0.04 µM
[10]
  GI50 at 48 h: 25 µM
BALB/3T3 [11]
  GI20: 0.8 µM
  GI80: 84.8 µM
[12]
  GI50 at 24 h: > 100 µM
BALB/3T3 [13]
  GI20: 5.4 µM
  GI80: > 100 µM
[14]
  GI50 at 48 h: > 100 µM
BALB/3T3 [15]
  GI20: 2.4 µM
  GI80: > 100 µM
[16]
  GI50 at 24 h: > 100 µM
BALB/3T3 [17]
  GI20: 6.1 µM
  GI80: > 100 µM
[18]
  GI50 at 48 h: > 100 µM
BALB/3T3 [19]
  GI20: 3.7 µM
  GI80: > 100 µM
[20]
  GI50 at 48 h: 89.7 µM
BALB/3T3 [21]
  GI20: 16.4 µM
  GI80: > 100 µM
HepG2 [22]
  Activity: Active
HepG2 [23]
  Activity: Active
HepG2 [24]
  Activity: inactive
HepG2 [25]
  Activity: inactive
HCT-116 [26]
  Activity: Active
HCT-116 [27]
  Activity: Active
MCF7 [28]
  Activity: Active
HCT-116 [29]
  Activity: 16.1%
HepG2 [30]
  Activity: 26.2%
BALB/3T3 [31]
  Activity: 3.5
Salmon testes DNA
  Activity: 5.4%
[32]
  selectivity ratio: 86.9
[33]
  selectivity ratio: 1.41
[34]
  RatioGI50: 0.87
[35]
  selectivity ratio: 5.75
[36]
  selectivity ratio: 99.4
[37]
  selectivity ratio: 1.41
[38]
  selectivity ratio at 72 h: 3
[39]
  selectivity ratio at 72 h: 1570
